Earlier results in US20060223182A1, “Device for producing autologous VEGF” (priority 2005, published 2006).
Like-named read-outs stand apart in the source and are kept apart here.

Assays:
human keratinocytes [1] = conditions: baseline about 200 pg/ml
human macrophages = conditions: 0.5 mM H2O2 for about 30 minutes
human keratinocytes [2] = conditions: human keratinocytes cultured in H2O2, with cycloheximide

OO [H2O2, hydrogen peroxide]
VEGF production level (human keratinocytes [1]; H2O2 250 uM): about 600 pg/ml | VEGF produced per cell (human macrophages): about 2.5 fg VEGF/cell

TGF-β: growth factor, obtainable from platelet releasate
increase in steady state levels of VEGF mRNA (VSMCs; 0.3 ng/ml TGF-β, 4 hours, 21% O2, printed as 'similar increase' to 2.5% O2 alone): 1.5-2 fold | increase in the level of VEGF mRNA (VSMCs; combined treatment of TGF-β and incubation at 2.5% O2): ~7 fold

C[C@@H]1C[C@@H]([C@H](O)CC2CC(=O)NC(=O)C2)C(=O)[C@@H](C)C1 [cycloheximide]
level of mRNA produced by the superinduction relative to mere addition of H2O2 (human keratinocytes [2]): at least 10 fold

TNF-α
VEGF production level (human keratinocytes [1]; TNF-α 25 ng/ml): about 600 pg/ml
